Experimental data published in patent US8293803B2, “Retinoid compounds and their use” (Reinnervate Limited, priority 2006, dated 2012).

Experiments:
[1] = tested on: neuroprogenitor cells derived from the adult rat hippocampus; test: Differentiation of adult neuroprogenitor cells; assay type: cell-based; details: adult rat hippocampal neuroprogenitor cells; β-tubulin-III staining
Protocol: (§1) The biological activity of compounds 6, 10, 11, 12 and 13 were determined by exposing these molecules at various concentrations to different mammalian stem cell systems, namely (1) human pluripotent stem cells; and (2) rat adult neuroprogenitor cells.
The biological activity of the synthetic retinoid EC23 (10a(i)) was also evaluated by exposing it to neuroprogenitor cells derived from the adult rat hippocampus. […] Immunocytochemical staining for the marker β-tubulin-III was used to confirm neuronal identity (data not shown).

[2] = tested on: human pluripotent stem cells; test: Differentiation of human pluripotent stem cells, morphology and immunocytochemistry / immunofluorescent microscopy; assay type: cell-based; details: for formation of neurons: confirmed by immunocytochemistry
Protocol: as §1
Tissue development by human pluripotent stem cells closely resembles that which occurs during normal embryogenesis in utero and this cell system is a proven and accepted model of cell differentiation (Przyborski et al, Stem Cells Dev., 2004, 13:400-408). […]

[3] = Stability in D6-DMSO, 3 days dark under air versus fluorescent light (1H NMR); assay type: physicochemical
Excerpt: FIG. 6 ^1H NMR (500 MHz) spectrum (d 5.40-7.80) of ATRA in D6-DMSO in a glass NMR tube after 3 days in the dark under air (top), versus 3 days exposure to fluorescent light (bottom).
FIG. 7 ^1H NMR (500 MHz) spectrum (d 7.20-8.10) of EC23 (10a(i) (R′═H)) in D6-DMSO in a glass NMR tube after 3 days in the dark under air (top), versus 3 days exposure to fluorescent light (bottom).
In order to study the relative stability of certain synthetic retinoids versus the natural systems, solutions of each were exposed to different environmental conditions and then studied by NMR.

[4] = tested on: human pluripotent TERA2.cl.SP12 embryonal carcinoma stem cells; test: Flow cytometry of cell surface antigen expression on human pluripotent stem cells; assay type: cell-based; details: 14 day test period; comparable to non-isomerised ATRA
Protocol: FIG. 8 Flow cytometric analysis of cell surface antigen expression for markers of stem cells (ssea-3, tra-1-60) and differentiated derivatives (vinis-53, a2b5) when cultures of human pluripotent embryonal carcinoma stem cells (TERA2.SP12) exposed to either 10 μM ATRA or 10 μM EC23 (10a(i) (R′═H)).
FIG. 9 Flow cytometric analysis of cell surface antigen expression on human pluripotent TERA2.cl.SP12 embryonal carcinoma stem cells (undiff) and their differentiated derivatives after 7 days exposure to either ATRA; 3Me-CEBX (12); 3Me-EC19 (10b(ii) R′═H); 3Me-EC23 (10b(i) (R′═H)); 4Me-TTN (6b(i)(R′═H)); all used at 1 μM. DMSO was used as a vehicle control.
as §1
Tissue development by human pluripotent stem cells closely resembles that which occurs during normal embryogenesis in utero and this cell system is a proven and accepted model of cell differentiation (Przyborski et al, Stem Cells Dev., 2004, 13:400-408).
The expression of cell surface antigens that are known to change as these stem cells commit to differentiate, was assessed by flow cytometry.
Flow cytometry was also used to assay for the effect(s) of compounds 6, 10 and (FIGS. 8 and 9).

[5] = Temperature sensitivity of retinoic acids at 37 °C (HNMR); assay type: physicochemical; details: 37° C. water bath, HNMR peak intensities
Protocol: (§2) In order to test the sensitivity of the natural retinoids, 10 mM samples in either DMSO or deuterochloroform were exposed to either 37° C., laboratory light (approximately 500 lux), white light (approximately 1250 lux) or UV light. Upon isomerisation HNMR spectra of samples were taken and compared to HNMR spectra of pure samples. The % peak intensities from the HNMR spectra were used to quantify levels of the different retinoic acids and any other compounds that may be present.
Temperature sensitivity was tested by placing solutions of retinoic acids in a 37° C. water bath for varying time lengths. After 1 hour at 37° C. approximate levels of the initial retinoic acid were 85% for a 13CRA sample and 100% for an ATRA sample. This decreased to 73% for a 13CRA sample and 86% for an ATRA sample after 24 hours.

[6] = Stability at room temperature for 1 week (HNMR); assay type: physicochemical
Protocol: as §2
Samples of ATRA and 13CRA, were left at room temperature for 1 week. The degraded solution of 13CRA contained around 78% 13CRA. […] All of the above experiments highlight retinoic acids inherent instability, not only in light, but also at 37° C. and even at room temperature.

[7] = Photoisomerisation under UV light (HNMR); assay type: physicochemical; details: over 12 hours
Protocol: as §2
(§3) The sensitivity of retinoic acids to light was tested by placing samples of ATRA, 9CRA and 13CRA in one of three lighting conditions for varying lengths of time. Samples were exposed to either normal laboratory light conditions, white light or UV light. HNMR spectra were then compared to those of pure samples.
FIGS. 4 and 5 show the relative ratios of the natural retinoic acids found in samples of ATRA and 13CRA isomerised in UV light for 1 hour and 12 hours.
Samples of synthetic retinoids 12(ii), 12(i) and 13 were exposed to 1 hour of laboratory light, 1 hour of white light and 1 hour of UV light. HNMR spectra from samples exposed to lab light and white light were identical to those of pure compounds. […] UV light is emitted at a frequency likely to excite the conjugated double bond region of these synthetic retinoids, resulting in the slight degradation observed. […]

stem cells = test: Modulation of cell differentiation (summary statement); assay type: cell-based; details: conditions not given
Protocol: (§4) The application of this technology to systems both with and without a methyl group (e.g. in 6a versus 6b), is important because it allows control of relative rotational orientation of the aryl and vinyl groups which has important implications for the control of conformation as a design principle for developing receptor-selective retinoid analogues.
as §1

[8] = Stability (summary statement); assay type: physicochemical; details: conditions not given
Excerpt: as §4

TERA2.cl.SP12 cells = test: Proliferation and cytotoxicity in TERA2.cl.SP12 cultures; assay type: cell-based, human
[9] = ATRA in ethanol, white light, 30 minutes; cited from earlier work
[10] = Photoisomerisation under laboratory light (HNMR); assay type: physicochemical; details: laboratory light (approx. 500 lux), 1 hour and 24 hours
Protocol: as §2, §3
The relative ratios of the natural retinoic acid isomers found in samples of ATRA and 13CRA isomerised in lab light for 1 hour and 24 hours can be seen in FIGS. 1 and 2. The new peaks in HNMR spectra increased in size, and so levels of isomerisation products increased over 24 hours but not to any great extent.
Samples of synthetic retinoids 12(ii), 12(i) and 13 were exposed to 1 hour of laboratory light, 1 hour of white light and 1 hour of UV light. HNMR spectra from samples exposed to lab light and white light were identical to those of pure compounds. […]

[11] = Photoisomerisation under white light (HNMR); assay type: physicochemical
Protocol: as §2, §3
Samples of synthetic retinoids 12(ii), 12(i) and 13 were exposed to 1 hour of laboratory light, 1 hour of white light and 1 hour of UV light. HNMR spectra from samples exposed to lab light and white light were identical to those of pure compounds. […] UV light is emitted at a frequency likely to excite the conjugated double bond region of these synthetic retinoids, resulting in the slight degradation observed. 12(ii) and 12(i) were stable under laboratory light and white light. 13 was stable when exposed to all forms of light.

[12] = 10 μM, 21 days, immunofluorescent microscopy
[13] = 1 hour, 10 mM in DMSO or deuterochloroform
[14] = 3 days exposure to fluorescent light, DMSO, NMR

## CC1(C)CCC(C)(C)c2cc(C#Cc3ccc(C(=O)O)cc3)ccc21 [10a(i), 4-(5,5,8,8-Tetramethyl-5,6,7,8-tetrahydro-naphthalen-2-ylethynyl)benzoic acid]
[1]
  differentiation into neurons: differentiate into well-defined neurons
[2]; [12]
  epithelial plaques (cytokeratin-8): very few, if any, epithelial plaques
  formation of neurons / neuronal differentiation: consisting primarily of cells undergoing neuronal differentiation
  nestin expression: strong expression for nestin
[2]; human pluripotent stem cells
  behaviour compared with natural ATRA: essentially identical behaviour to natural ATRA
[2]; morphology
  formation of neurons: induced the formation of morphologically identifiable neurons
[3]; 3 days, dark under air and fluorescent light, DMSO (same conditions as ATRA)
  stability by NMR: completely stable
[4]
  expression of differentiation antigens A2B5 and VINIS-53: marked increases in expression
  expression of stem cell markers TRA-1-60 and SSEA-3: suppression

## CC1=C(/C=C/C(C)=C/C=C/C(C)=C\C(=O)O)C(C)(C)CCC1 [Compound 13CRA, 13-cis-retinoic acid]
[5]; [13]
  approximate level of the initial retinoic acid: ~85%
[5]; 24 hours
  approximate level of the initial retinoic acid: ~73%
[6]
  content of the initial retinoic acid in the solution: around 78%
[7]
  degradation in UV light: rapidly degraded

## CC(=Cc1ccc(C(=O)O)cc1)c1cc2c(cc1C)C(C)(C)CCC2(C)C [Compound 6bi, 4-[2-(3,5,5,8,8-Pentamethyl-5,6,7,8-tetrahydro-naphthalen-2-yl)propenyl]benzoic acid]
Stem cells
  efficacy in modulating cell differentiation: efficacious in modulating cell differentiation
[8]
  stability: particularly stable

## COC(=O)c1cccc(C=C(C)c2ccc3c(c2)C(C)(C)CCC3(C)C)c1 [Compound 6aii, 3-[2-(5,5,8,8-Tetramethyl-5,6,7,8-tetrahydronaphthalen-2-yl)-propenyl]-benzoic acid methyl ester]
Stem cells
  efficacy in modulating cell differentiation: efficacious in modulating cell differentiation
[8]
  stability: particularly stable

## CC1(C)CCC(C)(C)c2cc(C#Cc3cccc(C(=O)NO)c3)ccc21 [11a(ii), 3-(5,5,8,8-Tetramethyl-5,6,7,8-tetrahydronaphthalen-2-ylethynyl)benzohydroxamic acid]
TERA2.cl.SP12 cells; TERA2.cl.SP12 cells, described as potent cytotoxicity
  cytotoxicity: time to kill the cells: ≤ 4 days
TERA2.cl.SP12 cells; cultures grown in its presence
  effect on proliferation of the cultures: halted proliferation almost instantly

## CC1=C(/C=C/C(C)=C/C=C/C(C)=C/C(=O)O)C(C)(C)CCC1 [ATRA, All-trans-retinoic acid]
[9]
  relative concentration of 9, 13-dicis RA in the isomerised ATRA sample: 5%
  relative concentration of 9CRA in the isomerised ATRA sample: 10%
  relative concentration of 11CRA in the isomerised ATRA sample: 10%
  relative concentration of 13CRA in the isomerised ATRA sample: 30%
  relative concentration of ATRA in the isomerised ATRA sample: 25%
  relative concentration of an unidentified compound in the isomerised ATRA sample: 20%
[1]
  differentiation into neurons: primarily form neurons
[10]
  relative stability in laboratory light: marginally more stable than 13CRA
[2]; [12]
  epithelial plaques (cytokeratin-8): numerous epithelial plaques
  formation of neurons / neuronal differentiation: induced the formation of neurons
[11]; white light (approx. 1250 lux), 1 hour
  level of ATRA: 76%
[11]; white light, 6 hours
  level of ATRA: 43%
[11]; white light, 24 hours
  level of ATRA: 21%
[5]; [13]
  approximate level of the initial retinoic acid: ~100%
[5]; 24 hours
  approximate level of the initial retinoic acid: ~86%
[3]; [14]
  amount remaining: 37%
  isomerisation and degradation: 63%
[3]; 3 days in the dark in air in DMSO
  stability by NMR: reasonably stable
[6]
  content of the initial retinoic acid in the solution: 94%
[7]
  degradation in UV light: rapidly degraded

## CC1(C)CCC(C)(C)c2cc(C#Cc3cccc(C(=O)O)c3)ccc21 [10a(ii)]
[2]; [12]
  cells immuno-positive for Tuj-1 and NF200: only a few cells immuno-positive
  epithelial plaques (cytokeratin-8): large numbers of cytokertin-8 positive epithelial plaques
  formation of neurons / neuronal differentiation: formation of very few neurons
  nestin expression: nestin staining reduced
[2]; morphology
  formation of epithelial cells: formation of epithelial cells
  formation of neurons: Neurons were not identified
